What was measured:
[1] = target: Proto-oncogene tyrosine-protein kinase Src (Homo sapiens, UniProt P12931); test: Inhibition of Src
[2] = target: Mitogen-activated protein kinase 14 (Homo sapiens, UniProt Q16539); test: Inhibition of p38alpha
[3] = target: Tyrosine-protein kinase Lck (Homo sapiens, UniProt P06239)
Description: Inhibition of Lck in presence of 0.5 uM ATP by HTRF kinase assay

[4] = target: Vascular endothelial growth factor receptor 2 (Homo sapiens, UniProt P35968)
T-cell [5] = test: Inhibition of anti-CD3/CD28-induced IL2 secretion in human T cells; format: functional, cell-based
[6] = Protein binding in human plasma; format: ADME, cell-free; conditions: read-out: PPB (converted)
[7] = AUC (0-infinity) in Sprague-Dawley rat at 1 mg/kg, iv; format: ADME, organism-based; set-up: time infinity, dose 1 mg/kg, route intravenous; conditions: plasma
[8] = Clearance in Sprague-Dawley rat at 1 mg/kg, iv; format: ADME, organism-based; set-up: dose 1 mg/kg, route intravenous; conditions: in vivo
[9] = Volume of distribution in Sprague-Dawley rat at 1 mg/kg, iv; format: ADME, organism-based; set-up: dose 1 mg/kg, route intravenous; conditions: in vivo, read-out: Vss
[10] = Half life in Sprague-Dawley rat at 1 mg/kg, iv; format: ADME, organism-based; set-up: dose 1 mg/kg, route intravenous; conditions: in vivo
[11] = Cmax in Sprague-Dawley rat at 5 mg/kg, po; format: ADME, organism-based; set-up: dose 5 mg/kg, route oral; conditions: in vivo
[12] = Tmax in Sprague-Dawley rat at 5 mg/kg, po; format: ADME, organism-based; set-up: dose 5 mg/kg, route oral; conditions: in vivo
[13] = target: Cyclin-dependent kinase 2 (Homo sapiens, UniProt P24941); test: Inhibition of CDK2
[14] = target: Protein kinase C theta type (Homo sapiens, UniProt Q04759); test: Inhibition of PKCtheta
T-cell [15] = test: Inhibition of anti-CD3/CD28-induced T cell proliferation; format: functional, cell-based; conditions: Homo sapiens
Homo sapiens = species on record: Homo sapiens; test: Inhibition of anti-CD3/CD28-induced IL2 secretion in human whole blood T cell; format: functional
T-cell [16] = test: Inhibition of T cell receptor zeta chain phosphorylation; format: functional, cell-based; conditions: Homo sapiens
T-cell [17] = test: Inhibition of anti-CD3/CD28-induced IL2 secretion in T cells stimulated with phorbol myristic acid and calcium ionophore; format: functional, cell-based; conditions: Homo sapiens
Jurkat = test: Antiproliferative activity against Jurkat cells; format: functional, cell-based; conditions: Homo sapiens
[18] = AUC (0-infinity) in Sprague-Dawley rat at 5 mg/kg, po; format: ADME, organism-based; set-up: time infinity, dose 5 mg/kg, route oral; conditions: plasma
[19] = Bioavailability in Sprague-Dawley rat at 5 mg/kg, po; format: ADME, organism-based; conditions: in vivo
Mus musculus [20] = test: Inhibition of anti-CD3-induced IL2 production in BALB/c mouse at 10 mg/kg, po; format: functional
Mus musculus [21] = test: Inhibition of anti-CD3-induced IL2 production in BALB/c mouse at 30 mg/kg, po; format: functional
Mus musculus [22] = test: Inhibition of anti-CD3-induced IL2 production in BALB/c mouse at 100 mg/kg, po; format: functional
[23] = Protein binding in rat plasma; format: ADME, cell-free; conditions: read-out: PPB (converted)
[24] = target: Tyrosine-protein kinase SYK (Homo sapiens, UniProt P43405); test: Inhibition of Syk
[25] = target: Tyrosine-protein kinase BTK (Homo sapiens, UniProt Q06187)
[26] = target: Insulin-like growth factor 1 receptor (Homo sapiens, UniProt P08069)
[27] = target: Tyrosine-protein kinase JAK2 (Homo sapiens, UniProt O60674)
[28] = target: T1, Tyrosine-protein kinase JAK3 (Homo sapiens, UniProt P52333)
T1 sequence (P52333 whole entry): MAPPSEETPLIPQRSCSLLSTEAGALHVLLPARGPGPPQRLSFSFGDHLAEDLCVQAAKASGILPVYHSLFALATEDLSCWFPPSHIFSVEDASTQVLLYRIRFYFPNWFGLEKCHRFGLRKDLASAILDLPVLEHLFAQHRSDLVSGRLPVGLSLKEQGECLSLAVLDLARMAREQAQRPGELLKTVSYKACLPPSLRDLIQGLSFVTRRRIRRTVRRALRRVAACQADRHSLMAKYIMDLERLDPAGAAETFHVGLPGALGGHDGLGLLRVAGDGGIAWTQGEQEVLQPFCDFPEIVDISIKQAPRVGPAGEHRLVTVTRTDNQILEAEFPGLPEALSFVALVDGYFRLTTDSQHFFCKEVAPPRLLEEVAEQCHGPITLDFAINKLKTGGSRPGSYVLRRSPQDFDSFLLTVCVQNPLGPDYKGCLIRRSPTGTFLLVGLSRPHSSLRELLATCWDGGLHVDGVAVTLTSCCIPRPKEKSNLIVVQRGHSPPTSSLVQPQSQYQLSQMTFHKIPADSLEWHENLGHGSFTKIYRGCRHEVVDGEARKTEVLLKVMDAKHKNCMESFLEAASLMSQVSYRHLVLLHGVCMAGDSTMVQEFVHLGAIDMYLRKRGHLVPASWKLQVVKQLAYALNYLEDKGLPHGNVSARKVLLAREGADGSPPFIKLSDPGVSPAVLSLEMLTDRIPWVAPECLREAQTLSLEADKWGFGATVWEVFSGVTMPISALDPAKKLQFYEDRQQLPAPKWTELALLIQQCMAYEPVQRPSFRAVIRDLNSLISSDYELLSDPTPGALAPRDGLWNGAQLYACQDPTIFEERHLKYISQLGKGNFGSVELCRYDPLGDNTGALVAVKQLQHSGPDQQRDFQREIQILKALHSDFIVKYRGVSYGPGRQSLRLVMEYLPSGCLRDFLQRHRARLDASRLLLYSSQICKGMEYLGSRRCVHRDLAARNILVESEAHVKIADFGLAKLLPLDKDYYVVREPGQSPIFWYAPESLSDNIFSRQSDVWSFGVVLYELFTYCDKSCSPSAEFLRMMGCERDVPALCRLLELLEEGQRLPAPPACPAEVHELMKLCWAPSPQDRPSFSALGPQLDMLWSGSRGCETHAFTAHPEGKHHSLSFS

[29] = target: Mitogen-activated protein kinase 10 (Homo sapiens, UniProt P53779)
T-cell [30] = test: Inhibition of human T cell proliferation by mixed lymphocyte reaction; format: functional, cell-based

Mitogen-activated protein kinase 14, sequence (Q16539 whole entry): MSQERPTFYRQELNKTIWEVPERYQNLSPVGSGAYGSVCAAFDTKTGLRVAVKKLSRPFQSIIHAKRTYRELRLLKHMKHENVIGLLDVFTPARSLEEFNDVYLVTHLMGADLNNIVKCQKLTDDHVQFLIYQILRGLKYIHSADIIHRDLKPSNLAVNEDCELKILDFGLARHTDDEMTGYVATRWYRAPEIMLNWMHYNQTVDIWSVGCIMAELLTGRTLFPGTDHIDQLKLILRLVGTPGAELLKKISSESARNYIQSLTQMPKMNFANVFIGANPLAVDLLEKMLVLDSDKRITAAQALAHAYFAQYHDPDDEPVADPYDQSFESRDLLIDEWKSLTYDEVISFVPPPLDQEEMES
Vascular endothelial growth factor receptor 2, sequence (P35968 whole entry): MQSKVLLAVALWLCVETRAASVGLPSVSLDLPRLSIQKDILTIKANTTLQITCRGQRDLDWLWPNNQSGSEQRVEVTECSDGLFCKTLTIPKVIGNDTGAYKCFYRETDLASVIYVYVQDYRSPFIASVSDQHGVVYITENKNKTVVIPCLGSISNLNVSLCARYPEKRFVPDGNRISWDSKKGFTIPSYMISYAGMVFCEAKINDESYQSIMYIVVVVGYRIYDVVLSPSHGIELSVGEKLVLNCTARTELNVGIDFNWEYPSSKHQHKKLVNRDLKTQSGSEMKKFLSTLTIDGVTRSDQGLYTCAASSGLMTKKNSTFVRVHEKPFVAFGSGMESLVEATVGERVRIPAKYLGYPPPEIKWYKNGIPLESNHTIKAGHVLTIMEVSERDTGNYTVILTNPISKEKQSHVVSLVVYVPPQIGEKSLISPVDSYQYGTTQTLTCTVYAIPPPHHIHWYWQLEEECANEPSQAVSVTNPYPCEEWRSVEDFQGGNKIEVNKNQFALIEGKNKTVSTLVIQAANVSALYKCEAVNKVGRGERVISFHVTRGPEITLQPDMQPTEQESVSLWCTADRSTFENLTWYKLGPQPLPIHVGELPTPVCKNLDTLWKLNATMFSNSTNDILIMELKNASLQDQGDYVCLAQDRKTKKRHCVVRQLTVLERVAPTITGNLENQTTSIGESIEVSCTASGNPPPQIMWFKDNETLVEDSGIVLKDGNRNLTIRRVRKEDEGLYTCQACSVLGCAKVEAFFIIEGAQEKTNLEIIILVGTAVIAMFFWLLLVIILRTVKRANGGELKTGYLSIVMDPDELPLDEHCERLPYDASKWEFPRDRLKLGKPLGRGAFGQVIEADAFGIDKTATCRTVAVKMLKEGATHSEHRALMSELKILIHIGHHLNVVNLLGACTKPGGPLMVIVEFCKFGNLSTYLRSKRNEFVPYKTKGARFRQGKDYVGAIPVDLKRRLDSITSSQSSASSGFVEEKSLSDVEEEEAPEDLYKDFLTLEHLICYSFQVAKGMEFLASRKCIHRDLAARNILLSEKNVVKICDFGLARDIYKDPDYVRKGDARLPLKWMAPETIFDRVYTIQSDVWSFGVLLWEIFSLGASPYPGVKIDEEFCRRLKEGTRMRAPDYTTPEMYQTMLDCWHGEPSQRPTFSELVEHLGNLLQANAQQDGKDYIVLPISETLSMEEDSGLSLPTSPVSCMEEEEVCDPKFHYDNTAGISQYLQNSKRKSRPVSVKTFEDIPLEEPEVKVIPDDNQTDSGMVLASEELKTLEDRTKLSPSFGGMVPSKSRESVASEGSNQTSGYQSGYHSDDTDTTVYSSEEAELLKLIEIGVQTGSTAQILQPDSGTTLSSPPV
Tyrosine-protein kinase Lck, sequence (P06239 whole entry): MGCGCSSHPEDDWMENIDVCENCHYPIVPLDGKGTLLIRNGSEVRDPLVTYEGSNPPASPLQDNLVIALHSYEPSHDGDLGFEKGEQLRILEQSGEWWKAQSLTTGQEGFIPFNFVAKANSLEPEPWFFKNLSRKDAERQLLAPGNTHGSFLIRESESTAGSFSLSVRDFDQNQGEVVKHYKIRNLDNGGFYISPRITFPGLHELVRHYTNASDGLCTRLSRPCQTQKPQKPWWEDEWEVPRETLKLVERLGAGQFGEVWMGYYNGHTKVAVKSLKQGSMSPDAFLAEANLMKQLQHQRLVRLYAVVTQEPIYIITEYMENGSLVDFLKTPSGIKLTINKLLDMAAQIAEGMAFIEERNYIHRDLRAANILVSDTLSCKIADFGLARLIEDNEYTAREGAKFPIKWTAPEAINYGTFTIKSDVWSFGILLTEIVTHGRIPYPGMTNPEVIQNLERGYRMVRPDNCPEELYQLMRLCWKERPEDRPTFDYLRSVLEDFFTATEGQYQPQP
Proto-oncogene tyrosine-protein kinase Src, sequence (P12931 2-536 limits assumed): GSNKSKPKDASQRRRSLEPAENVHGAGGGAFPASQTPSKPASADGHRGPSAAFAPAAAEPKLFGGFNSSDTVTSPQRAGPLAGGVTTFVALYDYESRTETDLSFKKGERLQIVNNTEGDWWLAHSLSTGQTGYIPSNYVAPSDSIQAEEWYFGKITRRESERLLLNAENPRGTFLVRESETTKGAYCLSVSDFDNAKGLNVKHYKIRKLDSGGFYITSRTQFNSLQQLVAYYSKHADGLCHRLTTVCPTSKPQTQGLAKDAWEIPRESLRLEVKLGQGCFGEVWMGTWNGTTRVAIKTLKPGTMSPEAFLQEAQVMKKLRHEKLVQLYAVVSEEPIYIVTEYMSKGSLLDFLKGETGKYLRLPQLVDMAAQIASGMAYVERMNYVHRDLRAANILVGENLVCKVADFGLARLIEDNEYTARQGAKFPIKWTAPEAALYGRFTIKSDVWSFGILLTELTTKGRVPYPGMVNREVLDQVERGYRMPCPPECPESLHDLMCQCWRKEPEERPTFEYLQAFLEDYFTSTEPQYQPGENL
Insulin-like growth factor 1 receptor, sequence (P08069 31-736 limits assumed): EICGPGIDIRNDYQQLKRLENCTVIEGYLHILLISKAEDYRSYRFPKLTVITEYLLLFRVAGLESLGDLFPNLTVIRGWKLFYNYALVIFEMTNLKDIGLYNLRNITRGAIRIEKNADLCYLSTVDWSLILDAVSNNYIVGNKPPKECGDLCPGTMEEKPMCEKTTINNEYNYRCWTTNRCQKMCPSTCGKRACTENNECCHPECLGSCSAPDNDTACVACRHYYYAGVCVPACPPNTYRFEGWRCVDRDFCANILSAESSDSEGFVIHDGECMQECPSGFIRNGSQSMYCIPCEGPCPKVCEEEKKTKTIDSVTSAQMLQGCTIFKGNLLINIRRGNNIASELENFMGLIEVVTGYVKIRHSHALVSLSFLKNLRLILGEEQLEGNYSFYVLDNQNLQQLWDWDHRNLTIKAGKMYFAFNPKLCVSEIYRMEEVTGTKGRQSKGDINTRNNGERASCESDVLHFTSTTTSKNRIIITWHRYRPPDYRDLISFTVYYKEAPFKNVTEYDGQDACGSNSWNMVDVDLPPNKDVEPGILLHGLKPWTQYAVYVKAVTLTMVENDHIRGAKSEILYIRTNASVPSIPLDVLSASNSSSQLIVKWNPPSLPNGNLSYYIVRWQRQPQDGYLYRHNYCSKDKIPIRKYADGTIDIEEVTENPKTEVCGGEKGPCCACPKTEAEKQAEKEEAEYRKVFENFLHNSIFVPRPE
Insulin-like growth factor 1 receptor, sequence (P08069 741-1367 limits assumed): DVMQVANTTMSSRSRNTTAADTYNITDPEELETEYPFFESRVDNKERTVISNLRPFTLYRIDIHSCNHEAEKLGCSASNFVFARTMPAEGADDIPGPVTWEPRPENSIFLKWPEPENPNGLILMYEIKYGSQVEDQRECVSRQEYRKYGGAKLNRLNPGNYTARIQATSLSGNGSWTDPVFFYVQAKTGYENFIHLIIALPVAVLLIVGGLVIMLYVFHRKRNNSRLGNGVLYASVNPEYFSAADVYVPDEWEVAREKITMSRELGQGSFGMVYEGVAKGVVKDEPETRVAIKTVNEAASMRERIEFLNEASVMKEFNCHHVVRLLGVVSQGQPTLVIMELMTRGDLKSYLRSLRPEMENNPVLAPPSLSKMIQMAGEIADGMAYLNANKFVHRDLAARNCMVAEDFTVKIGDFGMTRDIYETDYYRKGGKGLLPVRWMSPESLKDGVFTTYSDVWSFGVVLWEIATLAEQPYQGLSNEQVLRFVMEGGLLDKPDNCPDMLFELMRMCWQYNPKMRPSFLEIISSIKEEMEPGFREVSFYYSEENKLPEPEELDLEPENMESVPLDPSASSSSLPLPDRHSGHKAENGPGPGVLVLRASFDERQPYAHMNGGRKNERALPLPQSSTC
Mitogen-activated protein kinase 10, sequence (P53779 whole entry): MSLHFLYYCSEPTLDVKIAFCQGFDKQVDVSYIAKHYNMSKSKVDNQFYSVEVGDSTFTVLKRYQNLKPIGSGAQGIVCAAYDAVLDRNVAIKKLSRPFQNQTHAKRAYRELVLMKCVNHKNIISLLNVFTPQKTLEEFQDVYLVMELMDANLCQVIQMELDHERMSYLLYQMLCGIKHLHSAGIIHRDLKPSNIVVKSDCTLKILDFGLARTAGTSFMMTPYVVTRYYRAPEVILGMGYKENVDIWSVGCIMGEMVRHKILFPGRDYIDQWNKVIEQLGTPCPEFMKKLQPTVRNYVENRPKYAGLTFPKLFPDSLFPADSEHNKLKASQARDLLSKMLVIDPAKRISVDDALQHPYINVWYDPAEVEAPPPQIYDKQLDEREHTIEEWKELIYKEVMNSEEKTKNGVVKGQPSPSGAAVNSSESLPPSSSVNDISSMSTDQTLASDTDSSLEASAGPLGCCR

`Cc1cccc(C)c1OC(=O)N(c1ccccc1)c1ccnc(Nc2ccc(N3CCN(C)CC3)cc2)n1` gave an IC50 [1] of 10 nM, an IC50 [2] of 160 nM and an IC50 [3] of 14 nM. The IC50 [4] was 190 nM.
`Cc1cccc(C)c1OC(=O)N(c1ccnc(Nc2ccc(N3CCN(C)CC3)cc2)n1)c1ccc(F)cc1OC(C)C` showed an IC50 [1] of 13 nM, an IC50 [2] of 1200 nM and an IC50 [3] of 1 nM. It also gave an IC50 [4] of 4800 nM.
In the case of `COc1ccc(N(C(=O)Oc2c(C)cccc2C)c2ccnc(Nc3cc(OC)c(OCCN4CCOCC4)c(OC)c3)n2)c(OC)c1`, the IC50 [1] is reported as 2 nM, the IC50 [2] is reported as 1200 nM and the IC50 (T-cell [5]) is reported as 410 nM. It also gave an IC50 [3] of 1 nM and an IC50 [4] of 170 nM.
For `COc1ccc(N(C(=O)Oc2c(C)cccc2C)c2ccnc(Nc3ccc(N4CCN(C)CC4)cc3)n2)cc1`, the IC50 [1] was 3 nM, the IC50 [2] was 320 nM and the IC50 [3] was 12 nM. It also gave an IC50 [4] of 420 nM.
`COc1ccc(N(C(=O)Oc2c(C)cccc2C)c2ccnc(Nc3ccc(OCCN(C)C)cc3)n2)c(OC)c1` gave an IC50 [1] of 4 nM, an IC50 [2] of 2100 nM and an IC50 (T-cell [5]) of 270 nM. It also gave an IC50 [3] of 1 nM and an IC50 [4] of 220 nM.
`COc1ccc(N(C(=O)Oc2c(C)cccc2C)c2ccnc(Nc3ccc(OCCCN4CCN(C)CC4)c(F)c3)n2)c(OC)c1` gave an IC50 [1] of 5 nM, an IC50 [2] of 1300 nM and an IC50 (T-cell [5]) of 510 nM. It also gave an IC50 [3] of 1 nM and an IC50 [4] of 590 nM.
With `COc1ccc(N(C(=O)Oc2c(C)cccc2C)c2ccnc(Nc3ccc(N4CCN(C)CC4)c(OC)c3)n2)c(OC)c1` the IC50 [1] was 2 nM, the IC50 [2] was 440 nM and the IC50 (T-cell [5]) was 140 nM. For the same compound, the IC50 [3] was 1 nM and the IC50 [4] was 140 nM.
Work on `COc1ccccc1N(C(=O)Oc1c(C)cccc1C)c1ccnc(Nc2ccc(N3CCN(C)CC3)cc2)n1` yielded an IC50 [1] of 4 nM, an IC50 [2] of 420 nM and an IC50 [3] of 1 nM. The IC50 [4] was 190 nM.
Compound `Cc1cccc(C)c1OC(=O)N(c1cccc(-c2ccccc2)c1)c1ccnc(Nc2ccc(N3CCN(C)CC3)cc2)n1` has an IC50 [1] of 500 nM, an IC50 [2] of 8000 nM and an IC50 [3] of 49 nM. The IC50 [4] was 1900 nM.
`COc1ccc(N(C(=O)Oc2c(C)cccc2C)c2ccnc(Nc3ccc(OCCCN4CCN(C)CC4)c(OC)c3)n2)c(OC)c1` showed an IC50 [1] of 2 nM, an IC50 [2] of 2300 nM and an IC50 (T-cell [5]) of 100 nM. It also gave an IC50 [3] of 1 nM and an IC50 [4] of 210 nM.
In the case of `Cc1cccc(C)c1OC(=O)N(c1ccc(-c2ccccc2)cc1)c1ccnc(Nc2ccc(N3CCN(C)CC3)cc2)n1`, the IC50 [1] is reported as 98 nM, the IC50 [2] is reported as 1800 nM and the IC50 [3] is reported as 13 nM. It also gave an IC50 [4] of 590 nM.
Work on `COc1ccc(N(C(=O)Oc2c(C)cccc2C)c2ccnc(Nc3cc(OC)c(OCCCN4CCN(C)CC4)c(OC)c3)n2)c(OC)c1` yielded a fraction unbound [6] of 0.013, an AUC(0-inf) [7] of 568 ng·h/mL and a clearance [8] of 30.5 mL/min/kg. It also gave a Vd [9] of 11.3 L/kg, a half-life [10] of 4.6 h and a Cmax [11] of 22 ng/mL. For the same compound, the Tmax [12] was 4 h, the IC50 [13] was over 40000 nM and the IC50 [14] was over 5000 nM. It also gave an IC50 (T-cell [15]) of 490 nM, an IC50 (Homo sapiens) of 3000 nM and an IC50 (T-cell [16]) of 780 nM. It also gave an IC50 (T-cell [17]) of 1800 nM, an IC50 (Jurkat) of 1700 nM and an IC50 [1] of 1 nM. It also gave an IC50 [2] of 530 nM, an IC50 (T-cell [5]) of 61 nM and an AUC(0-inf) [18] of 175 ng·h/mL. For the same compound, the bioavailability [19] was 6%, the inhibition in vivo at 10 mg/kg (Mus musculus [20]) was 11% and the inhibition in vivo at 30 mg/kg (Mus musculus [21]) was 21%. For the same compound, the inhibition in vivo at 100 mg/kg (Mus musculus [22]) was 60%, the fraction unbound [23] was 0.016 and the IC50 [24] was 200 nM. For the same compound, the IC50 [25] was 100 nM, the IC50 [26] was over 25000 nM and the IC50 [27] was 240 nM. For the same compound, the IC50 [28] was 1200 nM and the IC50 [29] was over 5000 nM.
With `COc1ccc(N(C(=O)Oc2c(C)cccc2C)c2ccnc(Nc3ccc(N4CCN(C)CC4)c(F)c3)n2)c(OC)c1` the IC50 [1] was 2 nM, the IC50 [2] was 1000 nM and the IC50 (T-cell [5]) was 200 nM. For the same compound, the IC50 [3] was 1 nM and the IC50 [4] was 260 nM.
Compound `COc1ccc(N(C(=O)Oc2c(C)cccc2C)c2ccnc(Nc3ccc(OCCCN(C)C)cc3)n2)c(OC)c1` has an IC50 [1] of 4 nM, an IC50 [2] of 2100 nM and an IC50 (T-cell [5]) of 230 nM. For the same compound, the IC50 [3] was 1 nM and the IC50 [4] was 230 nM.
`COc1ccc(N(C(=O)Oc2c(C)cccc2C)c2ccnc(Nc3ccc(N4CCN(C)CC4)cc3)n2)c(OC)c1` showed an IC50 [1] of 6 nM, an IC50 [2] of 1300 nM and an IC50 (T-cell [5]) of 1900 nM. It also gave an IC50 [3] of 2 nM and an IC50 [4] of 640 nM.
With `COc1ccc(N(C(=O)Oc2c(C)cccc2C)c2ccnc(Nc3cc(OC)c(OCCN4CCN(C)CC4)c(OC)c3)n2)c(OC)c1` the IC50 [1] was 1 nM, the IC50 [2] was 180 nM and the IC50 (T-cell [5]) was 290 nM. It also gave an IC50 [3] of 1 nM and an IC50 [4] of 230 nM.
`COc1ccc(N(C(=O)Oc2c(C)cccc2C)c2ccnc(Nc3ccc(OCCCN4CCCCC4)c(F)c3)n2)c(OC)c1` gave an IC50 [1] of 12 nM, an IC50 [2] of 6800 nM and an IC50 (T-cell [5]) of 860 nM. The IC50 [3] was 2 nM and the IC50 [4] was 620 nM.
Compound `Cc1cccc(C)c1OC(=O)N(c1ccc2ccccc2c1)c1ccnc(Nc2ccc(N3CCN(C)CC3)cc2)n1` has an IC50 [1] of 14 nM, an IC50 [2] of 740 nM and an IC50 [3] of 10 nM. The IC50 [4] was 130 nM.
Work on `COc1ccc(N(C(=O)Oc2c(C)cccc2C)c2ccnc(Nc3cc(OC)c(N4CCN(C)CC4)c(OC)c3)n2)c(OC)c1` yielded an IC50 [1] of 1 nM, an IC50 [2] of 430 nM and an IC50 (T-cell [30]) of 590 nM. The IC50 [3] was 1 nM and the IC50 [4] was 170 nM.
